According to ChEMBL document CHEMBL2311414, “Synthesis, antimalarial activity and cytotoxic potential of new monocarbonyl analogues of curcumin” (Bioorg Med Chem Lett, 2013):

Assays:
[1] = Selectivity index, ratio of IC50 for african green monkey Vero cells to IC50 for chloroquine-resistant Plasmodium falciparum W2; assay type: toxicity, cell-based; conditions: read-out: Ratio IC50
[2] = tested on: DU-145; assay: Cytotoxicity against human DU145 cells after 48 hrs by MTT assay; assay type: functional, cell-based; conditions: DU-145, 48 h
[3] = tested on: MOLT-4; assay: Cytotoxicity against human MOLT4 cells after 48 hrs by MTT assay; assay type: functional, cell-based; conditions: MOLT-4, 48 h
[4] = tested on: HeLa; assay: Cytotoxicity against human HeLa cells after 48 hrs by MTT assay; assay type: functional, cell-based
[5] = tested on: KB; assay: Cytotoxicity against human KB cells after 48 hrs by MTT assay; assay type: functional, cell-based
[6] = tested on: Plasmodium falciparum; assay: Antimalarial activity against chloroquine-sensitive Plasmodium falciparum D6 infected in RBC assessed as plasmodial LDH activity after 72 hrs; assay type: functional, organism-based
[7] = Selectivity index, ratio of IC50 for african green monkey Vero cells to IC50 for chloroquine-sensitive Plasmodium falciparum D6; assay type: toxicity, cell-based; conditions: read-out: Ratio IC50
[8] = tested on: Vero; assay: Cytotoxicity against african green monkey Vero cells up to 9 uM after 48 hrs by neutral red assay; assay type: cell-based; conditions: chlorocebus sabaeus
[9] = tested on: PC-3; assay: Cytotoxicity against human PC3 cells after 48 hrs by MTT assay; assay type: functional, cell-based; conditions: PC-3, 48 h
[10] = tested on: Plasmodium falciparum; assay: Antimalarial activity against chloroquine-resistant Plasmodium falciparum W2 infected in RBC assessed as plasmodial LDH activity after 72 hrs; assay type: functional, organism-based
[11] = Plasmodium falciparum, D6, 72 h, read-out: IC50
[12] = Plasmodium falciparum, W2, 72 h, read-out: IC50

In the case of COc1cc(/C=C2\CC/C(=C\c3ccc(OCCCN(C)C)c(OC)c3)C2=O)ccc1OCCCN(C)C, the selectivity ratio [1] is reported as greater than 6, the IC50 [2] is reported as 430 nM and the IC50 [3] is reported as 430 nM. The IC50 [4] was 640 nM, the IC50 [5] was 200 nM and the IC50 [6, 11] was 1140 nM. For the same compound, the selectivity ratio [7] was greater than 7.9, the Activity [8] was “Non-toxic” and the IC50 [9] was 1500 nM. For the same compound, the IC50 [10, 12] was 1530 nM.
Compound Cc1nccn1CCCCOc1ccc(/C=C2\CC/C(=C\c3ccc(OCCCCn4ccnc4C)cc3)C2=O)cc1 has a selectivity ratio [1] greater than 6, an IC50 [6, 11] of 1090 nM and a selectivity ratio [7] greater than 7.7. The Activity [8] was “Non-toxic” and the IC50 [10, 12] was 1410 nM.
O=C1/C(=C/c2ccc(OCCCCn3ccnc3)cc2)CC/C1=C\c1ccc(OCCCCn2ccnc2)cc1 gave a selectivity ratio [1] greater than 2.5, an IC50 [6, 11] of 2040 nM and a selectivity ratio [7] greater than 4.3. The Activity [8] was “Non-toxic” and the IC50 [10, 12] was 3540 nM.
For CN(C)CCCCOc1ccc(/C=C2\CC/C(=C\c3ccc(OCCCCN(C)C)cc3)C2=O)cc1, the IC50 [2] was 4400 nM, the IC50 [3] was 330 nM and the IC50 [4] was 6800 nM. The IC50 [5] was 1650 nM and the IC50 [9] was 2900 nM.
For O=C1/C(=C/c2ccc(OCCCCN3CCOCC3)cc2)CCC/C1=C\c1ccc(OCCCCN2CCOCC2)cc1, the IC50 [6] was “Not Active”, the Activity [8] was “Non-toxic” and the IC50 [10] was “Not Active”.
With O=C1/C(=C/c2ccc(OCCCCN3CCOCC3)cc2)CC/C1=C\c1ccc(OCCCCN2CCOCC2)cc1 the IC50 [6] was “Not Active”, the Activity [8] was “Non-toxic” and the IC50 [10] was “Not Active”.
Work on O=C1/C(=C/c2ccc(OCCCCN3CCCCC3)cc2)CCC/C1=C\c1ccc(OCCCCN2CCCCC2)cc1 yielded an IC50 [2] of 2110 nM, an IC50 [3] of 730 nM and an IC50 [4] of 3630 nM. The IC50 [5] was 2540 nM and the IC50 [9] was 1530 nM.
Cc1nccn1CCOc1ccc(/C=C2\CC/C(=C\c3ccc(OCCn4ccnc4C)cc3)C2=O)cc1 showed a selectivity ratio [1] greater than 21.6, an IC50 [6, 11] of 350 nM and a selectivity ratio [7] greater than 26.4. For the same compound, the Activity [8] was “Non-toxic” and the IC50 [10, 12] was 430 nM.
O=C1/C(=C/c2ccc(OCCn3ccnc3)cc2)CC/C1=C\c1ccc(OCCn2ccnc2)cc1 showed a selectivity ratio [1] greater than 26.4, an IC50 [6, 11] of 450 nM and a selectivity ratio [7] greater than 21.6. For the same compound, the Activity [8] was “Non-toxic” and the IC50 [10, 12] was 370 nM.
Work on COc1cc(/C=C2\CC/C(=C\c3ccc(OCCCCn4ccnc4C)c(OC)c3)C2=O)ccc1OCCCCn1ccnc1C yielded a selectivity ratio [1] greater than 1.7, an IC50 [6, 11] of 4000 nM and a selectivity ratio [7] greater than 1.9. The Activity [8] was “Non-toxic” and the IC50 [10, 12] was 4480 nM.
With COc1cc(/C=C2\CC/C(=C\c3ccc(OCCCCn4ccnc4)c(OC)c3)C2=O)ccc1OCCCCn1ccnc1 the selectivity ratio [1] was greater than 14, the IC50 [6, 11] was 530 nM and the selectivity ratio [7] was greater than 14.9. For the same compound, the Activity [8] was “Non-toxic” and the IC50 [10, 12] was 560 nM.
Work on COc1cc(/C=C2\CC/C(=C\c3ccc(OCCCCN4CCCCCC4)c(OC)c3)C2=O)ccc1OCCCCN1CCCCCC1 yielded a selectivity ratio [1] greater than 4, an IC50 [2] of 1010 nM and an IC50 [3] of 410 nM. It also gave an IC50 [4] of 1390 nM, an IC50 [5] of 2250 nM and an IC50 [6, 11] of 1360 nM. For the same compound, the selectivity ratio [7] was greater than 5.3, the Activity [8] was “Non-toxic” and the IC50 [9] was 300 nM. It also gave an IC50 [10, 12] of 1820 nM.
In the case of COc1cc(/C=C2\CC/C(=C\c3ccc(OCCCCN4CCCCC4)c(OC)c3)C2=O)ccc1OCCCCN1CCCCC1, the selectivity ratio [1] is reported as greater than 2.6, the IC50 [2] is reported as 460 nM and the IC50 [3] is reported as 320 nM. The IC50 [4] was 490 nM, the IC50 [5] was 550 nM and the IC50 [6, 11] was 1740 nM. For the same compound, the selectivity ratio [7] was greater than 4.3, the Activity [8] was “Non-toxic” and the IC50 [9] was 500 nM. For the same compound, the IC50 [10, 12] was 2850 nM.
In the case of COc1cc(/C=C2\CC/C(=C\c3ccc(OCCCCN4CCOCC4)c(OC)c3)C2=O)ccc1OCCCCN1CCOCC1, the selectivity ratio [1] is reported as greater than 11.9, the IC50 [2] is reported as 670 nM and the IC50 [3] is reported as 360 nM. The IC50 [4] was 720 nM, the IC50 [5] was 620 nM and the IC50 [6, 11] was 690 nM. The selectivity ratio [7] was greater than 10.8, the Activity [8] was “Non-toxic” and the IC50 [9] was 280 nM. The IC50 [10, 12] was 630 nM.
With COc1cc(/C=C2\CC/C(=C\c3ccc(OCCCn4ccnc4C)c(OC)c3)C2=O)ccc1OCCCn1ccnc1C the selectivity ratio [1] was greater than 2.6, the IC50 [2] was 3900 nM and the IC50 [3] was 660 nM. The IC50 [4] was 3150 nM, the IC50 [5] was 1990 nM and the IC50 [6, 11] was 2010 nM. For the same compound, the selectivity ratio [7] was greater than 4, the Activity [8] was “Non-toxic” and the IC50 [9] was 200 nM. It also gave an IC50 [10, 12] of 3010 nM.
For COc1cc(/C=C2\CC/C(=C\c3ccc(OCCCn4ccnc4)c(OC)c3)C2=O)ccc1OCCCn1ccnc1, the IC50 [6] was “Not Active”, the Activity [8] was “Non-toxic” and the IC50 [10] was “Not Active”.
COc1cc(/C=C2\CCC/C(=C\c3ccc(OCCCN4CCCCC4)c(OC)c3)C2=O)ccc1OCCCN1CCCCC1 gave an IC50 [2] of 2050 nM, an IC50 [3] of 550 nM and an IC50 [4] of 1950 nM. It also gave an IC50 [5] of 1650 nM and an IC50 [9] of 6910 nM.
With COc1cc(/C=C2\CC/C(=C\c3ccc(OCCn4ccnc4C)c(OC)c3)C2=O)ccc1OCCn1ccnc1C the selectivity ratio [1] was greater than 6, the IC50 [2] was greater than 5000 nM and the IC50 [3] was 100 nM. For the same compound, the IC50 [4] was 900 nM, the IC50 [5] was 3400 nM and the IC50 [6, 11] was 1280 nM. The selectivity ratio [7] was greater than 6.5, the Activity [8] was “Non-toxic” and the IC50 [9] was greater than 5000 nM. For the same compound, the IC50 [10, 12] was 1380 nM.
COc1cc(/C=C2\CC/C(=C\c3ccc(OCCn4ccnc4)c(OC)c3)C2=O)ccc1OCCn1ccnc1 gave a selectivity ratio [1] greater than 4.9, an IC50 [6, 11] of 2210 nM and a selectivity ratio [7] greater than 4. The Activity [8] was “Non-toxic” and the IC50 [10, 12] was 1810 nM.
With COc1cc(/C=C2\CC/C(=C\c3ccc(OCCN(C)C)c(OC)c3)C2=O)ccc1OCCN(C)C the selectivity ratio [1] was greater than 15.4, the IC50 [2] was greater than 5000 nM and the IC50 [3] was 30 nM. It also gave an IC50 [4] of 500 nM, an IC50 [5] greater than 5000 nM and an IC50 [6, 11] of 440 nM. The selectivity ratio [7] was greater than 21.6, the Activity [8] was “Non-toxic” and the IC50 [9] was greater than 5000 nM. For the same compound, the IC50 [10, 12] was 620 nM.
Compound COc1cc(/C=C2\CC/C(=C\c3ccc(OCCN4CCCCC4)c(OC)c3)C2=O)ccc1OCCN1CCCCC1 has a selectivity ratio [1] greater than 15.4, an IC50 [2] greater than 5000 nM and an IC50 [3] of 20 nM. It also gave an IC50 [4] of 400 nM, an IC50 [5] of 4400 nM and an IC50 [6, 11] of 500 nM. The selectivity ratio [7] was greater than 16.4, the Activity [8] was “Non-toxic” and the IC50 [9] was greater than 5000 nM. It also gave an IC50 [10, 12] of 530 nM.
COc1cc(/C=C2\CC/C(=C\c3ccc(OCCN4CCOCC4)c(OC)c3)C2=O)ccc1OCCN1CCOCC1 showed a selectivity ratio [1] greater than 3.4, an IC50 [6, 11] of 3110 nM and a selectivity ratio [7] greater than 2.6. The Activity [8] was “Non-toxic” and the IC50 [10, 12] was 2410 nM.
For COc1cc(/C=C2\CC/C(=C\c3ccc(OCCBr)c(OC)c3)C2=O)ccc1OCCBr, the IC50 [6] was “Not Active”, the Activity [8] was “Non-toxic” and the IC50 [10] was “Not Active”.
In the case of C[C@@H]1CC[C@H]2[C@@H](C)C(=O)O[C@@H]3O[C@@]4(C)CC[C@@H]1[C@]32OO4 [ARTEMISININ], the selectivity ratio [1] is reported as greater than 800, the IC50 [6, 11] is reported as 19 nM and the selectivity ratio [7] is reported as greater than 470. For the same compound, the Activity [8] was “Non-toxic” and the IC50 [10, 12] was 11 nM.
With CCN(CC)CCCC(C)Nc1ccnc2cc(Cl)ccc12 (configuration not stated) [CHLOROQUINE] the Activity [8] was “Non-toxic”.
Work on COc1cccc2c1C(=O)c1c(O)c3c(c(O)c1C2=O)C[C@@](O)(C(=O)CO)C[C@@H]3O[C@H]1C[C@H](N)[C@H](O)[C@H](C)O1 [DOXORUBICIN] yielded an IC50 [2] of 200 nM, an IC50 [4] of 2200 nM and an IC50 [5] of 330 nM. It also gave an IC50 [9] of 200 nM.
